IC50 data for 15 compounds are collected here from patent US12172983B2, “EGFR inhibitors” (Blueprint Medicines Corporation, priority 2019, dated 2024).

Assay [1] concerns phosphorylation of EGFR (Tyr1068) in NCI-H1975 cell line that harbors the EGFR L858R T790M mutations. The experiment in a line: NCI-H1975 pEGFR AlphaLISA assay. In kind it is cell-based. The following applies: 4-5 hours incubation, read-out: Ext pEGFR H1975. Here is the method: Inhibitory effects of the compounds of the disclosure were evaluated in cellular assays that measure level of intracellular phosphorylation of EGFR in NCI-H1975 cell line that harbors the EGFR L858R T790M mutations (ATCC, CRL-5908) using AlphaLISA sureFire ultra p-EGFR (Tyr1068) assay kit (PerkinElmer, ALSU-PEGFR-A50K). The NCI-H1975 cells were seeded at 12.5K/well in 22 μL into 384 well opti plate (PerkinElmer, 6007299) and adhering overnight at 37 C/5% CO2. On the next day, the test compounds and DMSO control were added into H1975 cell plate followed by incubation at 37 C/5% CO2 for 4-5 hours. The cells were then spin down in the 384-well plate and lysed with 10 μL of 1×AlphaLISA lysis buffer followed by shaking at 600 rpm for 10 minutes at room temperature. After that, 5 μL of an acceptor bead mix was added to each well followed by incubation at room temperature for 1.5-2 h in dark. Then 5 μL of a donor bead mix was added to each well followed by overnight incubation at room temperature in dark. On the next day, the plate was read at a compatible plate reader to obtain pEGFR signal. Percent of pEGFR inhibition was plotted against log concentration of compounds to generate IC50 values.
(In general: Alpha assays give light when donor and acceptor beads are brought close together.)

Another assay deals with T1, EGFR (L858R T790M C797S) (Homo sapiens, UniProt P00533, C797S/L858R/T790M).
T1 construct: purchased SignalChem E10-122VG
Kind of assay: Biochemical EGFR inhibition assay (Caliper mobility shift), EGFR LRTMCS mutant. To be noted: inhibitory activity against EGFR LRTMCS mutant; apparent IC50; read-out: Ext Enz LRTMCS. Here is the method: Reactions proceeded until between 10% to 20% total peptides were phosphorylated at room temperature (25° C.) and were terminated with 35 mM 2,2′,2″,2′″-(ethane-1,2-diyldinitrilo)tetraacetic acid (EDTA). Product was detected using the Caliper mobility shift detection method where the phosphorylated peptide (product) and substrate were electrophoretically separated and measured. Percent activity was plotted against log concentration of compound and points to generate an apparent IC50.

Where [2] appears, read: Homo sapiens, NCI-H1975, inhibition of phosphorylation of mutant EGFR in NCI-H1975 cells.
The mark [3] stands for this setting: inhibition of phosphorylation of mutant EGFR in NCI-H1975 cells.

Like-named read-outs stand apart in the source and are kept apart here.

T1 sequence (P00533 25-1210 T790M/C797S/L858R): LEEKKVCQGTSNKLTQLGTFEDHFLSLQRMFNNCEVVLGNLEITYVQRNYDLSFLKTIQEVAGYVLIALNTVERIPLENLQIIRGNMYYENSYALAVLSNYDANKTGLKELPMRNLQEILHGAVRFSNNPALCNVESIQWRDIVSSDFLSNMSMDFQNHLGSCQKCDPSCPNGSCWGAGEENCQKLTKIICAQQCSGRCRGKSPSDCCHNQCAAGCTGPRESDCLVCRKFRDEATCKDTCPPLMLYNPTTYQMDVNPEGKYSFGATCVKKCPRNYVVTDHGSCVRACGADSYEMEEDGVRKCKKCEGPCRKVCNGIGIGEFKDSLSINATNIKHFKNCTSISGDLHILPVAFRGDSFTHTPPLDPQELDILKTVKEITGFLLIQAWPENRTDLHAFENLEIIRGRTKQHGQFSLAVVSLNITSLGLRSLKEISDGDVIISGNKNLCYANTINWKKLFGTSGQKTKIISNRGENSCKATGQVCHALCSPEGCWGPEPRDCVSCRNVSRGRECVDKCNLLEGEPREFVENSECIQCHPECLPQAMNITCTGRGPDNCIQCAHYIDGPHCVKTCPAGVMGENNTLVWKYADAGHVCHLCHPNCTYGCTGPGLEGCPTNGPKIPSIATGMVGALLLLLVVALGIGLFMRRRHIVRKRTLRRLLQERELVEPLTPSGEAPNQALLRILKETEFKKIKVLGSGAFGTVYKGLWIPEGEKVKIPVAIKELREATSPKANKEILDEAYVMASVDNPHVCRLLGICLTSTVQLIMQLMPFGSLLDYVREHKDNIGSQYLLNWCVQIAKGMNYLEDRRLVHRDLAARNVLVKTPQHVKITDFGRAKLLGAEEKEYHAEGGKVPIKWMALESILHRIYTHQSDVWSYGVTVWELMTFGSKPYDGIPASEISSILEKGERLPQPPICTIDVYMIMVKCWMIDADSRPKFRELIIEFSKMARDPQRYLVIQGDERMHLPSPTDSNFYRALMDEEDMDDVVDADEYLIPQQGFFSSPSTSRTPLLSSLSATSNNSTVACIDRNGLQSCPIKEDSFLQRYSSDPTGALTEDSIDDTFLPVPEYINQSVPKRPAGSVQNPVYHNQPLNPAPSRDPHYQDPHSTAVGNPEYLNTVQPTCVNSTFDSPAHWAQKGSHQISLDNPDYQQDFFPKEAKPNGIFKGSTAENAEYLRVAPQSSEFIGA

On to `COC1(CO)CCN(c2nccc(Nc3cc4c(C(C)C)ccc(N5C[C@H](CS(C)(=O)=O)[C@H]5C)c4cn3)n2)CC1` [Compound 175, {1-[4-({8-[(2R,3S)-3-(methanesulfonylmethyl)-2-methylazetidin-1-yl]-5-(propan-2-yl)isoquinolin-3-yl}amino)pyrimidin-2-yl]-4-methoxypiperidin-4-yl}methanol], for which the IC50 in assay [1] (setting [2]) is at most 10 nM; on EGFR (L858R T790M C797S), at most 15 nM. As to `CC(C)c1ccc(N2C[C@H](CS(C)(=O)=O)[C@H]2C)c2cnc(Nc3cnnc(N4CC[C@@H](O)[C@@](C)(F)C4)n3)cc12` (single isomer, unassigned) [Compound 130], the IC50 in assay [1] (setting [2]) was at most 10 nM; at EGFR (L858R T790M C797S), at most 15 nM. Taken in the same sequence, the figures for `CC(C)c1cnc(N2C[C@H](CS(C)(=O)=O)[C@H]2C)c2cnc(Nc3ccnc(N4CC[C@H]5COC[C@H]54)n3)cc12` (single isomer, unassigned) [Compound 266, N-{2-[(3aR,6aS)-hexahydro-1H-furo[3,4-b]pyrrol-1-yl]pyrimidin-4-yl}-8-[(2R,3S)-3-(methanesulfonylmethyl)-2-methylazetidin-1-yl]-5-(propan-2-yl)-2,7-naphthyridin-3-amine or N-{2-[(3aS,6aR)-hexahydro-1H-furo[3,4-b]pyrrol-1-yl]pyrimidin-4-yl}-8-[(2R,3S)-3-(methanesulfonylmethyl)-2-methylazetidin-1-yl]-5-(propan-2-yl)-2,7-naphthyridin-3-amine] were at most 10 nM and at most 15 nM. In the case of `CCS(=O)(=O)CC1CN(c2ccc(C(C)C)c3cc(Nc4ccnc(N5CC[C@H](OCCO)[C@H](F)C5)n4)ncc23)C1` [Compound 293, 2-{[(3R,4S)-1-{4-[(8-{3-[(ethanesulfonyl)methyl]azetidin-1-yl}-5-(propan-2-yl)isoquinolin-3-yl)amino]pyrimidin-2-yl}-3-fluoropiperidin-4-yl]oxy}ethan-1-ol], the IC50 in assay [1] (setting [2]) is at most 10 nM; on EGFR (L858R T790M C797S) it was at most 15 nM. The matching figures for `CC(C)c1ccc(N2CC(CS(C)(=O)=O)C2)c2cnc(Nc3ccnc(N4C[C@H](F)[C@H](O)C(C)(C)C4)n3)cc12` (single isomer, unassigned) [Compound 109, (4S,5R)-5-fluoro-1-[4-({8-[3-(methanesulfonylmethyl)azetidin-1-yl]-5-(propan-2-yl)isoquinolin-3-yl}amino)pyrimidin-2-yl]-3,3-dimethylpiperidin-4-ol or (4R,5S)-5-fluoro-1-[4-({8-[3-(methanesulfonylmethyl)azetidin-1-yl]-5-(propan-2-yl)isoquinolin-3-yl}amino)pyrimidin-2-yl]-3,3-dimethylpiperidin-4-ol]: at most 10 nM and at most 15 nM.

Take `CO[C@H]1CN(c2nccc(Nc3cc4c(C(C)C)ccc(N5C[C@H](CS(C)(=O)=O)[C@H]5C)c4cn3)n2)C[C@@H](F)[C@H]1O` (racemic) [Compound 200, (3R,4S,5S)-3-fluoro-1-(4-((5-isopropyl-8-((2R,3S)-2-methyl-3-((methylsulfonyl)methyl)azetidin-1-yl)isoquinolin-3-yl)amino)pyrimidin-2-yl)-5-methoxypiperidin-4-ol and (3S,4R,5R)-3-fluoro-1-(4-((5-isopropyl-8-((2R,3S)-2-methyl-3-((methylsulfonyl)methyl)azetidin-1-yl)isoquinolin-3-yl)amino)pyrimidin-2-yl)-5-methoxypiperidin-4-ol]: the IC50 in assay [1] (setting [2]) is at most 10 nM; on EGFR (L858R T790M C797S) it was 15.1 to 20 nM.

In the case of `CC(C)c1cnc(N2CC(CS(C)(=O)=O)C2)c2cnc(Nc3ccnc(N4CC[C@@H](O)[C@@](C)(F)C4)n3)cc12` (single isomer, unassigned) [Compound 67], the IC50 in assay [1] (setting [2]) was at most 10 nM.

For `CO[C@H]1CCN(c2nccc(Nc3cc4c(C(C)C)ccc(N5C[C@H](CS(C)(=O)=O)[C@H]5C)c4cn3)n2)C[C@H]1F` [Compound 123, N-(2-((3R,4S)-3-fluoro-4-methoxypiperidin-1-yl)pyrimidin-4-yl)-5-isopropyl-8-((2R,3S)-2-methyl-3-((methylsulfonyl)methyl)azetidin-1-yl)isoquinolin-3-amine], in assay [1] (setting [2]), the IC50 was at most 10 nM.

For `CO[C@@H]1CCN(c2nccc(Nc3cc4c(C(C)C)ccc(N5C[C@H](CS(C)(=O)=O)[C@H]5C)c4cn3)n2)C[C@@H]1F` [Compound 122, N-(2-((3S,4R)-3-fluoro-4-methoxypiperidin-1-yl)pyrimidin-4-yl)-5-isopropyl-8-((2R,3S)-2-methyl-3-((methylsulfonyl)methyl)azetidin-1-yl)isoquinolin-3-amine], in assay [1] (setting [2]), the IC50 is at most 10 nM.

As for `CC(C)c1ccc(N2CC(CS(C)(=O)=O)C2)c2cnc(Nc3ccnc(N4CC[C@H](O)[C@@](C)(F)C4)n3)cc12` (single isomer, unassigned) [Compound 61, (3S,4S)-3-fluoro-1-[4-({8-[3-(methanesulfonylmethyl)azetidin-1-yl]-5-(propan-2-yl)isoquinolin-3-yl}amino)pyrimidin-2-yl]-3-methylpiperidin-4-ol or (3R,4R)-3-fluoro-1-[4-({8-[3-(methanesulfonylmethyl)azetidin-1-yl]-5-(propan-2-yl)isoquinolin-3-yl}amino)pyrimidin-2-yl]-3-methylpiperidin-4-ol], in assay [1] (setting [2]), the IC50 was in the range of 30.1 to 50 nM. With `CO[C@@H]1CCN(c2nccc(Nc3cc4c(C(C)C)ccc(N5C[C@H](CS(C)(=O)=O)[C@H]5C)c4cn3)n2)C[C@H]1F` (single isomer, unassigned) [Compound 279, N-{2-[(3S,4S)-3-fluoro-4-methoxypiperidin-1-yl]pyrimidin-4-yl}-8-[(2R,3S)-3-(methanesulfonylmethyl)-2-methylazetidin-1-yl]-5-(propan-2-yl)isoquinolin-3-amine or N-{2-[(3R,4R)-3-fluoro-4-methoxypiperidin-1-yl]pyrimidin-4-yl}-8-[(2R,3S)-3-(methanesulfonylmethyl)-2-methylazetidin-1-yl]-5-(propan-2-yl)isoquinolin-3-amine], in assay [1] (setting [3]), the IC50 is 20.1 to 30 nM. For `CO[C@@H]1CCN(c2nccc(Nc3cc4c(C(C)C)ccc(N5C[C@H](CS(C)(=O)=O)[C@H]5C)c4cn3)n2)C[C@H]1F` (single isomer, unassigned) [Compound 278, N-{2-[(3R,4R)-3-fluoro-4-methoxypiperidin-1-yl]pyrimidin-4-yl}-8-[(2R,3S)-3-(methanesulfonylmethyl)-2-methylazetidin-1-yl]-5-(propan-2-yl)isoquinolin-3-amine or N-{2-[(3S,4S)-3-fluoro-4-methoxypiperidin-1-yl]pyrimidin-4-yl}-8-[(2R,3S)-3-(methanesulfonylmethyl)-2-methylazetidin-1-yl]-5-(propan-2-yl)isoquinolin-3-amine], in assay [1] (setting [2]), the IC50 fell in the range of 20.1 to 30 nM. On to `CC(C)c1ccc(N2C[C@H](CS(C)(=O)=O)[C@H]2C)c2cnc(Nc3ccnc(N4CC[C@H](O)[C@@](C)(F)C4)n3)cc12` (single isomer, unassigned) [Compound 119, (3S,4S)-3-fluoro-1-[4-({8-[(2R,3S)-3-(methanesulfonylmethyl)-2-methylazetidin-1-yl]-5-(propan-2-yl)isoquinolin-3-yl}amino)pyrimidin-2-yl]-3-methylpiperidin-4-ol or (3R,4R)-3-fluoro-1-[4-({8-[(2R,3S)-3-(methanesulfonylmethyl)-2-methylazetidin-1-yl]-5-(propan-2-yl)isoquinolin-3-yl}amino)pyrimidin-2-yl]-3-methylpiperidin-4-ol], for which the IC50 in assay [1] (setting [2]) was 20.1 to 30 nM.

In the case of `CO[C@H]1CCN(c2nccc(Nc3cc4c(C(C)(C)N)ccc(N5C[C@H](CS(C)(=O)=O)[C@H]5C)c4cn3)n2)C[C@H]1F` [Compound 312, 5-(2-aminopropan-2-yl)-N-(2-((3R,4S)-3-fluoro-4-methoxypiperidin-1-yl)pyrimidin-4-yl)-8-((2R,3S)-2-methyl-3-((methylsulfonyl)methyl)azetidin-1-yl)isoquinolin-3-amine], at EGFR (L858R T790M C797S), the IC50 is at most 15 nM.

As to `CC(C)c1ccc(N2C[C@H](CS(C)(=O)=O)[C@H]2C)c2cnc(Nc3ccnc(N4CC[C@H](O)[C@@](C)(F)C4)n3)cc12` (single isomer, unassigned) [Compound 120, (3R,4R)-3-fluoro-1-[4-({8-[(2R,3S)-3-(methanesulfonylmethyl)-2-methylazetidin-1-yl]-5-(propan-2-yl)isoquinolin-3-yl}amino)pyrimidin-2-yl]-3-methylpiperidin-4-ol or (3S,4S)-3-fluoro-1-[4-({8-[(2R,3S)-3-(methanesulfonylmethyl)-2-methylazetidin-1-yl]-5-(propan-2-yl)isoquinolin-3-yl}amino)pyrimidin-2-yl]-3-methylpiperidin-4-ol], the IC50 in assay [1] (setting [3]) was 10.1 to 20 nM.
